Assay results taken from US20110105408A1, “THERAPEUTIC PEPTIDES” (INTER-K PTY LIMITED, priority 2008, published 2011).
“Also recorded” adds a separate entry of the source.

Legend:
[1] = system: HT29 human colorectal adenocarcinoma tumour; assay: Inhibition of HT29 tumour growth in a mouse model, intra-tumoural injection; type: in vivo, Mouse (Mus musculus) BALB/c nu/nu; settings: for Tumour volume, Delta avg: change in volume from day 0
Description: HT29 human colorectal adenocarcinoma cells were cultured in RPMI 1640 cell culture medium supplemented with 10% v/v FCS and 50 IU/mL penicillin-streptomycin. The cells were harvested by trypsinisation, washed twice in HBSS and counted. The cells were then resuspended in HBSS to a final concentration of 2×10^7 cells/mL.
• Species: Mouse (Mus musculus) • Strain: BALB/c nu/nu • Source: University of Adelaide (Waite Campus, Urrbrae, SA, Australia) • Total number of animals in study: 20 females • Number of study groups: 2 (1 test, 1 control) • Number of mice per group: 10 • Body weight range: 20.61-25.27 g at onset of treatment (mean 22.27 g) • Age range: 10-12 weeks at onset of treatment.
Prior to inoculation the skin on the injection site (dorsal right flank) was swabbed with alcohol. The needle was introduced through the skin into the subcutaneous space just below the animal's right shoulder, and 100 μL of cells (2×10^6 cells) were discharged. The treatment of mice began nine days after HT29 cell inoculation, the average tumour volume was 68 mm^3 (average variability of 6.1%).
Body weight and tumour dimensions (length and diameter) were measured for all animals on the first day of treatment (day 0) and then three times per week, including the termination day of the study (Day 24).
Mice were randomized, based on body weight, into two groups of ten mice on Day 0 of the study. The peptide dendrimer IK248B presenting 10 monomer units of the peptide RSKAKNPLYR (SEQ ID No. 6) (see Example 8) was used in this study. The vehicle control (phosphate buffered saline (PBS)) and IK248B dendrimer (20 mg/kg) were each administered by intra-tumoural injection once daily for five consecutive days, beginning on Day 0.
The vehicle control and IK248B dendrimer were administered at a dosing volume of 4.762 mL/kg (100 μL) based on a 21 g mouse. Each animal's body weight was measured immediately prior to dosing. The volume of dosing solution administered to each mouse was calculated and adjusted based on individual body weight.
Tumours were excised from all mice post mortem and weighed. Tumour volume was calculated using the equation:
V(mm^3)=length×diameter^2×p/6
ΔT/ΔC(%) was calculated using the following equation:
ΔT/ΔC(%)=(ΔvolumeTreatment/ΔVolumeControl)×100
where Δ=change in volume from day 0 to the final measurement day or nominated day of interest.
All statistical calculations were performed using SigmaStat 3.0 (SPSS Australasia, North Sydney, NSW, Australia). A two-sample t-test was used to determine the significance in body weight change within a treatment group between day 0 and day 4, and between day 0 and the termination day of the study. A One-Way Analysis of Variance (ANOVA) was performed on tumour volumes measured in all mice at the end of the study. Where significant differences were found in the data, the All Pairwise Multiple Comparison Procedures (Holm-Sidak Method) were performed. A two-sample t-test was used to show a significant difference between the tumour weight data for the vehicle control and Dend 10 10(4) treatment groups. A p value of less than 0.05 was considered significant.

[2] = system: HT29 colon cancer cells; assay: Cell proliferation (MTT) assay, HT29 cells; type: cell-based, human
Description: Single cell suspensions of viable trypsinised cells were seeded into 96-well tissue culture plates at a density of 2×10^3 cells per well in a volume of 100 μl of a suitable culture media with foetal calf serum (FCS) (e.g., Dulbecco's Modified Eagles Medium (DMEM), with 10% v/v FCS, glutamine, Hepes, and antibiotics). A set of triplicate wells was prepared for each concentration of the peptide dendrimer being tested. Additional sample wells containing untreated cells or media alone were set up in each treatment plate and processed in parallel as reference controls. A zero-time plate of untreated cells and media-alone wells was simultaneously prepared and an MTT assay carried out on this plate at the time of test peptide dendrimer addition to treatment plates. All plates were cultured for 24 hours before addition of the test dendrimer. To prepare the MTT solution 100 mg of MTT (3-(4,5-dimethylthiazolyl-2)-2,5-diphenyltetrazolium bromide) (Cat #. M-128, Sigma, St Louis Mo.), is mixed with 20 ml of PBS at pH 7.4. The resulting solution is filter sterilized (0.2 μM syringe filter) and stored at 4° C. protected from light until use. MTT substrate is cleaved in growing cells to yield a water insoluble salt. After solubilisation of the salt crystals, a coloured product is produced the measurement of which allows quantitation of the proliferative activity of the cultured cells.
Appropriate concentrations of the test dendrimer were prepared by dilution of freshly prepared sterile 1 mM stock solutions into cell culture media to give a final well volume of 200 μl containing 10% v/v FCS. The zero-plate was processed by addition of MTT at this time. Cell culture was continued for a further 24 or 48 hours before addition of 20 μl of MTT in PBS (5 mg/ml, 0.2 um filter sterilised). The MTT cell proliferation assay measures cell proliferation rate and, in instances where cell viability is compromised, the assay indicates a comparative reduction in cell viability. After a 3 hour incubation in the presence of MTT (5% CO2 in air at 37° C.), plates were centifuged at 450 g for 5 minutes, supernatant removed by gentle suction and precipitated tetrazolium salt resuspended into 150 μl DMSO:glycine (0.1 M glycine, 0.1 M NaCl pH 10.5) (6:1 v/v) solution. Plates were gently vortexed to complete solubilisation of crystalline material and absorbance was read at 540-550 nm using a microplate reader. Sample data were processed to determine the comparative growth of treated samples relative to untreated controls.
HT29 cells were cultured for 48 hours in the presence of selected dendrimers and proliferation of the cells was assessed by MTT assay essentially as described in Example 1.2. The results were calculated as percentage proliferation of control cells (not treated with dendrimer).

Q: Which “tumour growth compared to vehicle only control” value ([1]; 20 mg/kg intra-tumoural once daily for five days) does the source give for `CC(C)C[C@H](NC(=O)[C@@H]1CCCN1C(=O)[C@H](CC(N)=O)NC(=O)[C@H](CCCCN)NC(=O)[C@H](C)NC(=O)[C@H](CCCCN)NC(=O)[C@H](CO)NC(=O)[C@@H](N)CCCNC(=N)N)C(=O)N[C@@H](Cc1ccc(O)cc1)C(=O)N[C@@H](CCCNC(=N)N)C(=O)NCCCC[C@H](NC(=O)[C@H](CCCCNC(=O)[C@H](CCCCNC(=O)[C@H](CCCNC(=N)N)NC(=O)[C@H](Cc1ccc(O)cc1)NC(=O)[C@H](CC(C)C)NC(=O)[C@@H]1CCCN1C(=O)[C@H](CC(N)=O)NC(=O)[C@H](CCCCN)NC(=O)[C@H](C)NC(=O)[C@H](CCCCN)NC(=O)[C@H](CO)NC(=O)[C@@H](N)CCCNC(=N)N)NC(=O)[C@H](CCCNC(=N)N)NC(=O)[C@H](Cc1ccc(O)cc1)NC(=O)[C@H](CC(C)C)NC(=O)[C@@H]1CCCN1C(=O)[C@H](CC(N)=O)NC(=O)[C@H](CCCCN)NC(=O)[C@H](C)NC(=O)[C@H](CCCCN)NC(=O)[C@H](CO)NC(=O)[C@@H](N)CCCNC(=N)N)NC(=O)[C@H](CCCCNC(=O)[C@H](CCCNC(=N)N)NC(=O)[C@H](Cc1ccc(O)cc1)NC(=O)[C@H](CC(C)C)NC(=O)[C@@H]1CCCN1C(=O)[C@H](CC(N)=O)NC(=O)[C@H](CCCCN)NC(=O)[C@H](C)NC(=O)[C@H](CCCCN)NC(=O)[C@H](CO)NC(=O)[C@@H](N)CCCNC(=N)N)NC(=O)[C@H](CCCNC(=N)N)NC(=O)[C@H](Cc1ccc(O)cc1)NC(=O)[C@H](CC(C)C)NC(=O)[C@@H]1CCCN1C(=O)[C@H](CC(N)=O)NC(=O)[C@H](CCCCN)NC(=O)[C@H](C)NC(=O)[C@H](CCCCN)NC(=O)[C@H](CO)NC(=O)[C@@H](N)CCCNC(=N)N)C(=O)NCCCC[C@H](NC(=O)[C@H](CCCCNC(=O)[C@H](CCCNC(=N)N)NC(=O)[C@H](Cc1ccc(O)cc1)NC(=O)[C@H](CC(C)C)NC(=O)[C@@H]1CCCN1C(=O)[C@H](CC(N)=O)NC(=O)[C@H](CCCCN)NC(=O)[C@H](C)NC(=O)[C@H](CCCCN)NC(=O)[C@H](CO)NC(=O)[C@@H](N)CCCNC(=N)N)NC(=O)[C@H](CCCCNC(=O)[C@H](CCCCNC(=O)[C@H](CCCNC(=N)N)NC(=O)[C@H](Cc1ccc(O)cc1)NC(=O)[C@H](CC(C)C)NC(=O)[C@@H]1CCCN1C(=O)[C@H](CC(N)=O)NC(=O)[C@H](CCCCN)NC(=O)[C@H](C)NC(=O)[C@H](CCCCN)NC(=O)[C@H](CO)NC(=O)[C@@H](N)CCCNC(=N)N)NC(=O)[C@H](CCCNC(=N)N)NC(=O)[C@H](Cc1ccc(O)cc1)NC(=O)[C@H](CC(C)C)NC(=O)[C@@H]1CCCN1C(=O)[C@H](CC(N)=O)NC(=O)[C@H](CCCCN)NC(=O)[C@H](C)NC(=O)[C@H](CCCCN)NC(=O)[C@H](CO)NC(=O)[C@@H](N)CCCNC(=N)N)NC(=O)[C@H](CCCCNC(=O)[C@H](CCCNC(=N)N)NC(=O)[C@H](Cc1ccc(O)cc1)NC(=O)[C@H](CC(C)C)NC(=O)[C@@H]1CCCN1C(=O)[C@H](CC(N)=O)NC(=O)[C@H](CCCCN)NC(=O)[C@H](C)NC(=O)[C@H](CCCCN)NC(=O)[C@H](CO)NC(=O)[C@@H](N)CCCNC(=N)N)NC(=O)[C@H](CCCNC(=N)N)NC(=O)[C@H](Cc1ccc(O)cc1)NC(=O)[C@H](CC(C)C)NC(=O)[C@@H]1CCCN1C(=O)[C@H](CC(N)=O)NC(=O)[C@H](CCCCN)NC(=O)[C@H](C)NC(=O)[C@H](CCCCN)NC(=O)[C@H](CO)NC(=O)[C@@H](N)CCCNC(=N)N)C(=O)NCCC(N)=O` [IK248B] here?
A: The value was “markedly inhibited”.

Q: And the “average tumour weight at the end of the study” value ([1]; 20 mg/kg intra-tumoural once daily for five days, Day 24, control 0.962 g)?
A: The value was 0.437 g.

Q: And the “dT/dC [%]” value ([1]; Day 0)?
A: The value was 100.0%.

Q: What about the “Tumour volume, Delta avg” value ([1]; Day 0) of the same compound?
A: Its value is 0.0 mm^3.

Q: And the “Tumour volume, Average” value ([1]; Day 0 post-initial treatment)?
A: Its value is 68.0 mm^3.

Q: And the “dT/dC [%]” value ([1]; Day 2)?
A: Its value is 134.3%.

Q: What about the “Tumour volume, Delta avg” value ([1]; Day 2) of the same compound?
A: The value was 68.6 mm^3.

Q: What about the “Tumour volume, Average” value ([1]; Day 2 post-initial treatment) of the same compound?
A: The value was 136.6 mm^3.

Q: And the “dT/dC [%]” value ([1]; Day 4)?
A: Its value is 102.0%.

Q: And the “Tumour volume, Delta avg” value ([1]; Day 4)?
A: The value was 144.0 mm^3.

Q: What about the “Tumour volume, Average” value ([1]; Day 4 post-initial treatment) of the same compound?
A: The value was 211.9 mm^3.

Q: And the “dT/dC [%]” value ([1]; Day 7)?
A: The value was 68.1%.

Q: And the “Tumour volume, Delta avg” value ([1]; Day 7)?
A: The value was 180.6 mm^3.

Q: What about the “Tumour volume, Average” value ([1]; Day 7 post-initial treatment) of the same compound?
A: Its value is 248.6 mm^3.

Q: And the “dT/dC [%]” value ([1]; Day 11)?
A: Its value is 58.0%.

Q: What about the “Tumour volume, Delta avg” value ([1]; Day 11) of the same compound?
A: Its value is 232.9 mm^3.

Q: And the “Tumour volume, Average” value ([1]; Day 11 post-initial treatment)?
A: The value was 300.9 mm^3.

Q: What about the “dT/dC [%]” value ([1]; Day 14) of the same compound?
A: The value was 44.6%.

Q: What about the “Tumour volume, Delta avg” value ([1]; Day 14) of the same compound?
A: The value was 255.9 mm^3.

Q: And the “Tumour volume, Average” value ([1]; Day 14 post-initial treatment)?
A: Its value is 323.9 mm^3.

Q: And the “dT/dC [%]” value ([1]; Day 16)?
A: The value was 45.2%.

Q: What about the “Tumour volume, Delta avg” value ([1]; Day 16) of the same compound?
A: Its value is 323.1 mm^3.

Q: And the “Tumour volume, Average” value ([1]; Day 16 post-initial treatment)?
A: The value was 391.0 mm^3.

Q: And the “dT/dC [%]” value ([1]; Day 18)?
A: The value was 47.1%.

Q: What about the “Tumour volume, Delta avg” value ([1]; Day 18) of the same compound?
A: The value was 408.9 mm^3.

Q: And the “Tumour volume, Average” value ([1]; Day 18 post-initial treatment)?
A: The value was 476.9 mm^3.

Q: What about the “dT/dC [%]” value ([1]; Day 21) of the same compound?
A: The value was 55.7%.

Q: What about the “Tumour volume, Delta avg” value ([1]; Day 21) of the same compound?
A: Its value is 598.7 mm^3.

Q: What about the “Tumour volume, Average” value ([1]; Day 21 post-initial treatment) of the same compound?
A: Its value is 601.5 mm^3.

Q: What about the “dT/dC [%]” value ([1]; Day 24) of the same compound?
A: Its value is 54.5%.

Q: What about the “Tumour volume, Delta avg” value ([1]; Day 24) of the same compound?
A: The value was 710.4 mm^3.

Q: And the “Tumour volume, Average” value ([1]; Day 24 post-initial treatment)?
A: Its value is 702.1 mm^3.

Q: And the “inhibition of proliferation of HT29 cells (MTT)” value ([2]; 48 hours culture with dendrimer)?
A: The value was “proliferation of the cells was inhibited; also recorded: more effective than dendrimer IK248”.

Q: And the “dendrimer concentration required for total kill” value ([2]; HT29 cells, 48 hours, MTT)?
A: Its value is 10 µM.
